Measured values published in ChEMBL document CHEMBL1201862, “PubChem BioAssay data set” (2004).
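Briefly, cells in 96-well plates were exposed to five compound concentrations for 48 h, and endpoints were estimated by linear interpolation. GI50: concentration for 50% inhibition of growth.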 Active and inactive are the calls of the source. Cut-off read from the data, not from the text of the source: active = GI50 up to about 1.1 µM and inactive = higher.

Assays:
Assay in all cases: inhibition of tumour cell growth, NCI panel, 48 h
MDA-MB-231 = system: MDA-MB-231
HCC 2998 = system: HCC 2998
OVCAR-3 = system: OVCAR-3
UO-31 = system: UO-31
LOX IMVI = system: LOX IMVI
DU-145 = system: DU-145
UACC-257 = system: UACC-257
PC-3 = system: PC-3
EKVX = system: EKVX
HCT-116 = system: HCT-116
SNB-75 = system: SNB-75
SF-268 = system: SF-268
MCF7 = system: MCF7
HOP-62 = system: HOP-62
NCI-H23 = system: NCI-H23
NCI-H460 = system: NCI-H460
SR = system: SR
OVCAR-8 = system: OVCAR-8
RPMI-8226 = system: RPMI-8226

Measured: GI50

C[C@H](O)C1CC(Cn2nnc3c(N)ncnc32)C1(C)C (stereo partly specified)
inactive: MDA-MB-231 > 100 µM | HCC 2998 > 100 µM | OVCAR-3 > 100 µM | UO-31 > 100 µM | LOX IMVI > 100 µM | DU-145 > 100 µM | UACC-257 > 100 µM | PC-3 > 100 µM | EKVX > 100 µM | HCT-116 > 100 µM | SNB-75 > 100 µM | SF-268 > 100 µM | MCF7 > 100 µM | HOP-62 > 100 µM

CC1(C)CC(=O)C2=C(C1)OC1=C(CC(C)(C)CC1=O)C2c1ccccc1Cl (stereo unspecified)
inactive: MDA-MB-231 89.7 µM | HCC 2998 > 100 µM | OVCAR-3 > 100 µM | UO-31 1.94 µM | LOX IMVI > 100 µM | DU-145 > 100 µM | UACC-257 > 100 µM | NCI-H23 > 100 µM | PC-3 > 100 µM | NCI-H460 > 100 µM | EKVX > 100 µM | SR > 100 µM | HCT-116 > 100 µM | SNB-75 > 100 µM | SF-268 > 100 µM | OVCAR-8 > 100 µM | RPMI-8226 > 100 µM | HOP-62 59.2 µM

Cc1nc2ccccc2n1Cc1ccc(NC(=S)NC2CCCCC2)cc1
inactive: MDA-MB-231 38.1 µM | HCC 2998 36.6 µM | OVCAR-3 10.8 µM | UO-31 41 µM | LOX IMVI 10.6 µM | DU-145 36.8 µM | UACC-257 13.5 µM | NCI-H23 17.5 µM | PC-3 31.3 µM | NCI-H460 35.5 µM | EKVX 12.3 µM | HCT-116 34.9 µM | SNB-75 24 µM | SF-268 17.2 µM | OVCAR-8 30.9 µM | RPMI-8226 13.4 µM | MCF7 4.86 µM | HOP-62 > 75 µM

C1=N\c2ccc(cc2)/N=C\c2ccc(cc2)OCc2cccc(n2)COc2ccc/1cc2
inactive: MDA-MB-231 > 100 µM | OVCAR-3 > 100 µM | UO-31 > 100 µM | DU-145 > 100 µM | UACC-257 > 100 µM | NCI-H23 > 100 µM | PC-3 > 100 µM | NCI-H460 > 100 µM | EKVX > 100 µM | SR > 100 µM | HCT-116 > 100 µM | SNB-75 > 100 µM | SF-268 > 100 µM | OVCAR-8 > 100 µM | RPMI-8226 > 100 µM | MCF7 > 100 µM | HOP-62 > 100 µM

CC(C)(C)c1cc(COc2cc(COc3ccc(-c4c5c(nc6c4CCc4ccc(-c7c8ccccc8nc8ccccc78)cc4-6)-c4cc(-c6c7ccccc7nc7ccccc67)ccc4CC5)cc3)cc(OCc3cc(C(C)(C)C)cc(C(C)(C)C)c3)c2)cc(C(C)(C)C)c1
inactive: MDA-MB-231 > 100 µM | HCC 2998 80.5 µM | OVCAR-3 > 100 µM | UO-31 > 100 µM | DU-145 > 100 µM | UACC-257 > 100 µM | NCI-H23 > 100 µM | PC-3 > 100 µM | NCI-H460 > 100 µM | EKVX > 100 µM | HCT-116 > 100 µM | SNB-75 > 100 µM | SF-268 > 100 µM | RPMI-8226 > 100 µM | MCF7 > 100 µM | HOP-62 > 100 µM

CN1CCN(C(=S)N(C(=O)c2cccs2)C2CCCCC2)CC1
inactive: MDA-MB-231 > 100 µM | HCC 2998 > 100 µM | OVCAR-3 > 100 µM | UO-31 > 100 µM | LOX IMVI > 100 µM | DU-145 > 100 µM | UACC-257 > 100 µM | NCI-H23 > 100 µM | NCI-H460 > 100 µM | SR > 100 µM | SNB-75 89.9 µM | SF-268 > 100 µM | OVCAR-8 > 100 µM | RPMI-8226 > 100 µM | MCF7 > 100 µM

COP(=O)(Cc1ccc(/C=C/C#N)o1)OC
inactive: MDA-MB-231 > 100 µM | OVCAR-3 > 100 µM | DU-145 > 100 µM | NCI-H23 > 100 µM | NCI-H460 > 100 µM | EKVX > 100 µM | SR > 100 µM | HCT-116 > 100 µM | SNB-75 > 100 µM | SF-268 > 100 µM | OVCAR-8 > 100 µM | RPMI-8226 > 100 µM | MCF7 > 100 µM | HOP-62 > 100 µM

O=C1C=CC=C/C1=C1\N=C(c2ccccc2OCC(=O)c2ccc(Br)cc2)SS1
inactive: MDA-MB-231 > 10 µM | HCC 2998 > 100 µM | OVCAR-3 > 100 µM | UO-31 > 100 µM | LOX IMVI > 100 µM | DU-145 > 100 µM | UACC-257 > 100 µM | NCI-H23 35.2 µM | PC-3 > 100 µM | NCI-H460 > 100 µM | EKVX 89.9 µM | HCT-116 78.9 µM | SNB-75 8.93 µM | SF-268 32 µM | OVCAR-8 93.5 µM | RPMI-8226 > 100 µM | MCF7 > 100 µM | HOP-62 4.08 µM

CC1(C)[C@@H](Cn2cc(I)c(=O)[nH]c2=O)CC[C@@]1(C)CO
inactive: MDA-MB-231 > 100 µM | HCC 2998 > 100 µM | OVCAR-3 > 100 µM | UO-31 > 100 µM | LOX IMVI > 100 µM | DU-145 > 100 µM | UACC-257 > 100 µM | PC-3 > 100 µM | EKVX > 100 µM | HCT-116 > 100 µM | SNB-75 40.3 µM | SF-268 > 100 µM | HOP-62 > 100 µM

NNc1nc2ccccc2c(=O)n1NC(=O)C(=O)Nc1cccc(C(F)(F)F)c1
inactive: MDA-MB-231 > 100 µM | HCC 2998 > 100 µM | OVCAR-3 > 100 µM | UO-31 > 100 µM | LOX IMVI > 100 µM | UACC-257 > 100 µM | NCI-H23 > 100 µM | PC-3 > 100 µM | NCI-H460 > 100 µM | EKVX > 100 µM | SR > 10 µM | HCT-116 > 100 µM | SNB-75 > 100 µM | SF-268 > 100 µM | OVCAR-8 > 100 µM | RPMI-8226 > 100 µM | MCF7 > 100 µM | HOP-62 > 100 µM

NC(CSC1c2ccccc2-c2ccccc21)C(=O)O (stereo unspecified)
inactive: MDA-MB-231 > 100 µM | OVCAR-3 > 100 µM | UO-31 > 100 µM | LOX IMVI > 100 µM | DU-145 > 100 µM | UACC-257 > 100 µM | NCI-H23 > 100 µM | PC-3 > 100 µM | NCI-H460 > 100 µM | EKVX > 100 µM | SR 69.2 µM | HCT-116 > 100 µM | SNB-75 > 100 µM | OVCAR-8 > 100 µM | RPMI-8226 > 100 µM | MCF7 > 100 µM | HOP-62 > 100 µM

COc1ccc(/C=N/n2c(C)n[nH]c2=O)cc1
inactive: MDA-MB-231 > 100 µM | HCC 2998 > 100 µM | OVCAR-3 54.3 µM | UO-31 > 100 µM | DU-145 > 100 µM | UACC-257 > 100 µM | NCI-H23 > 100 µM | PC-3 > 100 µM | NCI-H460 > 100 µM | EKVX 85.7 µM | HCT-116 > 100 µM | SNB-75 > 100 µM | SF-268 > 100 µM | OVCAR-8 > 100 µM | RPMI-8226 > 100 µM | MCF7 > 100 µM | HOP-62 > 100 µM

O=C(Cc1nc2ccc(C(=O)c3ccccc3)cc2nc1O)C(=O)Nc1ccc(Br)cc1
inactive: MDA-MB-231 > 100 µM | OVCAR-3 > 100 µM | UO-31 57.7 µM | LOX IMVI 79.4 µM | UACC-257 > 100 µM | NCI-H23 > 100 µM | PC-3 88.1 µM | NCI-H460 > 100 µM | EKVX > 100 µM | HCT-116 75.3 µM | SNB-75 38 µM | SF-268 > 100 µM | OVCAR-8 96.2 µM | RPMI-8226 99.3 µM | MCF7 > 100 µM | HOP-62 > 100 µM

Cc1cc2nc3c(N)nn(CCCN(C)C)c3nc2cc1C
inactive: MDA-MB-231 60.5 µM | HCC 2998 41.3 µM | OVCAR-3 > 100 µM | UO-31 46.6 µM | DU-145 > 100 µM | UACC-257 97.5 µM | NCI-H23 > 100 µM | PC-3 > 100 µM | NCI-H460 80.5 µM | EKVX > 100 µM | HCT-116 50.5 µM | SNB-75 > 100 µM | SF-268 > 100 µM | OVCAR-8 83 µM | RPMI-8226 > 100 µM | MCF7 33.4 µM | HOP-62 > 100 µM

CC1=C/C(=N\OCC(=O)O)CC(c2ccc(C(C)C)cc2)C1 (stereo unspecified)
inactive: MDA-MB-231 54.8 µM | DU-145 > 100 µM | UACC-257 43 µM | PC-3 38.5 µM | NCI-H460 42.2 µM | EKVX > 100 µM | SR 28.1 µM | HCT-116 45.6 µM | OVCAR-8 27.9 µM | RPMI-8226 23.2 µM | MCF7 52.5 µM

CN(C)/C=N/CCN1CCOCC1
inactive: MDA-MB-231 > 100 µM | OVCAR-3 > 100 µM | UO-31 > 100 µM | LOX IMVI > 100 µM | DU-145 > 100 µM | UACC-257 > 100 µM | NCI-H23 > 100 µM | PC-3 > 100 µM | EKVX > 100 µM | SR > 100 µM | HCT-116 > 100 µM | SNB-75 97.7 µM | SF-268 > 100 µM | OVCAR-8 > 100 µM | RPMI-8226 > 100 µM | MCF7 > 100 µM | HOP-62 > 100 µM

Clc1ccc2c(NCCNC3CCCCC3)ccnc2c1
inactive: MDA-MB-231 9.62 µM | OVCAR-3 15 µM | UO-31 2.95 µM | LOX IMVI 2.67 µM | DU-145 16.1 µM | NCI-H23 15.7 µM | PC-3 12.9 µM | EKVX 3.31 µM | HCT-116 5.96 µM | SNB-75 4.63 µM | SF-268 9.64 µM | OVCAR-8 10.7 µM | RPMI-8226 3.44 µM | MCF7 4.53 µM | HOP-62 11.9 µM
